Data on 19 compounds can be found in ChEMBL document CHEMBL1909046, “DrugMatrix in vitro pharmacology data”.

The target in assay [1] is 5-hydroxytryptamine receptor 4 (Cavia porcellus, UniProt O70528). The format is cell membranes, Dunkin-Hartley, Striatum, Membrane. Further: in other assays of this panel Not Active means under 50% inhibition at 10 µM.
The next assay deals with Acetylcholinesterase (Homo sapiens, UniProt P22303). The assay can be described thus: DRUGMATRIX: Acetylcholinesterase enzyme inhibition (substrate: acetylthiocholine). The format is cell-based, HEK293. Conditions: Not Active = under 50% inhibition at 10 µM.
The target of assay [2] is T1, Neuropeptide Y receptor type 2 (Homo sapiens, UniProt P49146). Further: in other assays of this panel Not Active means under 50% inhibition at 10 µM.
T1 sequence (P49146 whole entry): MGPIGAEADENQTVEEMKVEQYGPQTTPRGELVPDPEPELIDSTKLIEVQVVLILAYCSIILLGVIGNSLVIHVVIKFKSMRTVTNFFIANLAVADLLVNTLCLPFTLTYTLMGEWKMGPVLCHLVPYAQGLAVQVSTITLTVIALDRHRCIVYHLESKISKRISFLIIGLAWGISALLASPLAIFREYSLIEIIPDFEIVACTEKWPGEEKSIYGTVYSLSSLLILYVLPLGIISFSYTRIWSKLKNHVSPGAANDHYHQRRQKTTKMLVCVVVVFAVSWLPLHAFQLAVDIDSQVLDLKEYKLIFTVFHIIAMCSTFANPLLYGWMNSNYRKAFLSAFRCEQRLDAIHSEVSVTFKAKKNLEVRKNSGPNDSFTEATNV
The format is cell membranes, Membrane. To be noted: kan-ts.

Assay [3] deals with T2, C-X-C chemokine receptor type 1 (Homo sapiens, UniProt P25024).
T2 sequence (P25024 whole entry): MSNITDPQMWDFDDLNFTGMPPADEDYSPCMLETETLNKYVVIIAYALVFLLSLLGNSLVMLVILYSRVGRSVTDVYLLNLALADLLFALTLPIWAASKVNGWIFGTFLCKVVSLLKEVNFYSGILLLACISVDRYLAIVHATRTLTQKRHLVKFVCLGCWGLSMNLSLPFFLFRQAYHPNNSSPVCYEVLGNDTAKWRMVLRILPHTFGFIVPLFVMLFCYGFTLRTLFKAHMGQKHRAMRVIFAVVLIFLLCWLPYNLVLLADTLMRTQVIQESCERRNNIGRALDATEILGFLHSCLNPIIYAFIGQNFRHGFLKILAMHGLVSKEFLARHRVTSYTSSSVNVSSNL

The target of a further assay is Substance-P receptor (Homo sapiens, UniProt P25103). The format is cell membranes, Membrane. To be noted: cho. Further: in other assays of this panel Not Active means under 50% inhibition at 10 µM.
Assay [4] deals with Receptor tyrosine-protein kinase erbB-2 (Homo sapiens, UniProt P04626). Kind of assay: biochemical. The format is cell-based, Insect cells. Conditions: insect cells.
In the next assay the target is Mu-type opioid receptor (Homo sapiens, UniProt P35372). The assay can be described thus: DRUGMATRIX: Opiate mu (OP3, MOP) radioligand binding (ligand: [3H] Diprenorphine). The format is cell membranes, CHO-K1, Membrane. To be noted: cho-k1; Not Active = under 50% inhibition at 10 µM.
Mu-type opioid receptor, sequence (P35372 whole entry): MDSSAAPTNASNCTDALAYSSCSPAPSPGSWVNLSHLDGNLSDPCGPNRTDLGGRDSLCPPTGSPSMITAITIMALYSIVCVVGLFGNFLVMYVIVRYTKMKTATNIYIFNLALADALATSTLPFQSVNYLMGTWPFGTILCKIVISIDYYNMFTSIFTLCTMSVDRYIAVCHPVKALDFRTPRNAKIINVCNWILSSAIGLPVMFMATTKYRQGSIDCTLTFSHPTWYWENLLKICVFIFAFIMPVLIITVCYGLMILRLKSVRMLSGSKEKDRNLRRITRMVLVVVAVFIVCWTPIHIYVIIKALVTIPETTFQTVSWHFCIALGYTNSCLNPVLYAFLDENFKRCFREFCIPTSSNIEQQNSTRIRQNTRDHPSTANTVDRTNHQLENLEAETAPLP

Acetylcholinesterase, sequence (P22303 whole entry): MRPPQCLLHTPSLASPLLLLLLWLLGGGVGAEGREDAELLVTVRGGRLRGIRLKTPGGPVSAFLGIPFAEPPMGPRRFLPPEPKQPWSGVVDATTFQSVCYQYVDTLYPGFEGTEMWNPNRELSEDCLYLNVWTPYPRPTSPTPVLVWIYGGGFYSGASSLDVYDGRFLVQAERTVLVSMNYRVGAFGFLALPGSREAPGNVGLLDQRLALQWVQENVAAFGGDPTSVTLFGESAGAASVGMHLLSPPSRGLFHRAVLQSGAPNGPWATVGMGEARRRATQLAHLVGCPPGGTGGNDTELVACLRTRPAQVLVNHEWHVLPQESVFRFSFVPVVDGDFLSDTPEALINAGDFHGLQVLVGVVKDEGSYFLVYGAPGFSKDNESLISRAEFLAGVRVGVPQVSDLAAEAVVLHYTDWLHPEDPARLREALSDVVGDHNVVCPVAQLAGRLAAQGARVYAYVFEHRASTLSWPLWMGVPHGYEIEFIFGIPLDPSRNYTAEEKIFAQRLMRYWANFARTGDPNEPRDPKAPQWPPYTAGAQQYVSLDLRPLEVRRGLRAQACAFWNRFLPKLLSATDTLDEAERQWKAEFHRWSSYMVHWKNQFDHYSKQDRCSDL
Substance-P receptor, sequence (P25103 whole entry): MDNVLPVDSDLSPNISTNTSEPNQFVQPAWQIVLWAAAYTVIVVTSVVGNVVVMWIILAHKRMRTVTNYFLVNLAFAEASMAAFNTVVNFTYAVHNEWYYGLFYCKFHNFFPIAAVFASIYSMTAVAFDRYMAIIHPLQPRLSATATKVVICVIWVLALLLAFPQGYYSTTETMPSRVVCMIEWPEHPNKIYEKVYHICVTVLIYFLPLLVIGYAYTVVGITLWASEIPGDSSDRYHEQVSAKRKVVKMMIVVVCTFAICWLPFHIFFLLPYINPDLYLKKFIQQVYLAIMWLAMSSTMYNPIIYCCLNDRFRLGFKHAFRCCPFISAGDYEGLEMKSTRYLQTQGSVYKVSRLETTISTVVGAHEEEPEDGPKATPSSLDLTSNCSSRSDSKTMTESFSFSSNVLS
5-hydroxytryptamine receptor 4, sequence (O70528 whole entry): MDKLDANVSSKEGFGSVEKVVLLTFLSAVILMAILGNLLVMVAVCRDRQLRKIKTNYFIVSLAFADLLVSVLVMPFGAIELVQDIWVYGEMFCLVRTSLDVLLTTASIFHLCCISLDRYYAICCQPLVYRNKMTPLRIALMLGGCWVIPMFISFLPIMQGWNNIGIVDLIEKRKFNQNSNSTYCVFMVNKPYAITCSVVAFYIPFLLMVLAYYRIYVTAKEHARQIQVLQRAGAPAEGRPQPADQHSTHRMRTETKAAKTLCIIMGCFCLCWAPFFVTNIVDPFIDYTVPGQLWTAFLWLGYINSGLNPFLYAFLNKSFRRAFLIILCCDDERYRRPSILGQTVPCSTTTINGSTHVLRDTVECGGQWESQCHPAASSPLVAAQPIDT

By IC50 is commonly meant the concentration that inhibits the measured activity by half. Regarding `Nn1nnc2ccccc21`, the IC50 entry (in assay [1]; against Acetylcholinesterase (hek293); in assay [2]; in assay [3]; on Substance-P receptor; in assay [4]) was “Not Active” throughout. Further, the IC50 result at Mu-type opioid receptor is reported as “Not Active”.
As for `CC[C@]1(O)CC[C@H]2[C@@H]3CCC4=CCCC[C@@H]4[C@H]3CC[C@@]21C`, the IC50 result in assay [1] was “Not Active”; at Acetylcholinesterase (read-out: IC50), 6.5 µM; in assay [2], “Not Active”; in assay [3], “Not Active”; on Substance-P receptor, “Not Active”; in assay [4], “Not Active”. Further, on Mu-type opioid receptor, the IC50 result is reported as “Not Active”.
Consider `N[C@@H](Cc1ccc(F)cc1)C(=O)O`, for which the IC50 entry (in assay [1]; on Acetylcholinesterase (hek293); in assay [2]; in assay [3]; against Substance-P receptor; in assay [4]) was “Not Active” in each case. The IC50 result at Mu-type opioid receptor is listed as “Not Active”.
Take `CCOC(=O)[C@H](CCc1ccccc1)N[C@@H](C)C(=O)N1Cc2ccccc2C[C@H]1C(=O)O`: the IC50 entry (in assay [1]; at Acetylcholinesterase (hek293); in assay [2]; in assay [3]; against Substance-P receptor; in assay [4]) was “Not Active” throughout. For the same compound, on Mu-type opioid receptor, the IC50 entry is “Not Active”.
As to `O=C(c1ccccc1Cl)N1CCC(Cc2ccccc2)CC1`, the IC50 entry (in assay [1]; against Acetylcholinesterase (hek293); in assay [2]; in assay [3]; at Substance-P receptor; in assay [4]) was “Not Active” throughout. On Mu-type opioid receptor, the IC50 result is on record as “Not Active”.
As for `CCOC(=O)[C@H](CCc1ccccc1)N[C@@H](C)C(=O)N1CCC[C@H]1C(=O)O`, the IC50 entry (in assay [1]; at Acetylcholinesterase (hek293); in assay [2]; in assay [3]; against Substance-P receptor; in assay [4]) was “Not Active” each time. Besides, the IC50 entry on Mu-type opioid receptor was “Not Active”.
For the compound `Clc1cc2c(cc1Cl)Oc1cc(Cl)c(Cl)cc1O2` [2,3,7,8-TETRACHLORODIBENZO-P-DIOXIN], the IC50 entry (in assay [1]; against Acetylcholinesterase (hek293); in assay [2]; in assay [3]; on Substance-P receptor; in assay [4]) was “Not Active” each time.
Turning to `C=C1/C(=C\C=C2/CCC[C@]3(C)[C@@H]([C@H](C)CCCC(C)C)CC[C@@H]23)C[C@@H](O)C[C@@H]1O` [ALFACALCIDOL], the IC50 entry (in assay [1]; against Acetylcholinesterase (hek293); in assay [2]; in assay [3]; against Substance-P receptor; in assay [4]) was “Not Active” throughout. Further, the IC50 result at Mu-type opioid receptor is recorded as “Not Active”.
`CCCCCC[C@H]1C(=O)O[C@H](C)[C@H](NC(=O)c2cccc(NC=O)c2O)C(=O)O[C@@H](C)[C@@H]1OC(=O)CC(C)C` [ANTIMYCIN A]: the IC50 entry (in assay [1]; against Acetylcholinesterase (hek293); in assay [2]; in assay [3]; against Substance-P receptor; in assay [4]) was “Not Active” in each case. Moreover, the IC50 result at Mu-type opioid receptor is reported as “Not Active”.
In the case of `C[C@@H]1CC[C@H]2[C@@H](C)C(=O)O[C@@H]3O[C@@]4(C)CC[C@@H]1[C@]32OO4` [ARTEMISININ], the IC50 entry (in assay [1]; on Acetylcholinesterase (hek293); in assay [2]; in assay [3]; against Substance-P receptor; in assay [4]) was “Not Active” throughout. In addition, at Mu-type opioid receptor, the IC50 entry was “Not Active”.
As to `CO[C@H]1[C@@H](O)[C@H](N)[C@@H](O[C@H]2O[C@H]([C@H](C)N)CC[C@H]2N)[C@H](O)[C@@H]1N(C)C(=O)CN` [ASTROMICIN], the IC50 result (in assay [1]; against Acetylcholinesterase (hek293); in assay [2]; in assay [3]; at Substance-P receptor; in assay [4]) was “Not Active” throughout. Also, at Mu-type opioid receptor, the IC50 entry was “Not Active”.
Consider `[N-]=[N+]=CC(=O)OC[C@H](N)C(=O)O` [AZASERINE], for which the IC50 result (in assay [1]; on Acetylcholinesterase (hek293); in assay [2]; in assay [3]; on Substance-P receptor; in assay [4]) was “Not Active” in each case. At Mu-type opioid receptor, the IC50 result is recorded as “Not Active”.
Regarding `CC[C@H]1OC(=O)[C@H](C)[C@@H](O[C@H]2C[C@@](C)(OC)[C@@H](O)[C@H](C)O2)[C@H](C)[C@@H](O[C@@H]2O[C@H](C)C[C@H](N(C)C)[C@H]2O)[C@](C)(O)C[C@@H](C)CN(C)[C@H](C)[C@@H](O)[C@]1(C)O` [AZITHROMYCIN], the IC50 entry (in assay [1]; at Acetylcholinesterase (hek293); in assay [2]; in assay [3]; at Substance-P receptor; in assay [4]) was “Not Active” throughout. Also, the IC50 result at Mu-type opioid receptor is listed as “Not Active”.
Turning to `CC(C)C[C@H]1C(=O)N2CCC[C@H]2[C@]2(O)O[C@](NC(=O)[C@@H]3C=C4c5cccc6[nH]c(Br)c(c56)C[C@H]4N(C)C3)(C(C)C)C(=O)N12` [BROMOCRIPTINE], the IC50 result (in assay [1]; at Acetylcholinesterase (hek293); in assay [2]; in assay [3]; against Substance-P receptor; in assay [4]) was “Not Active” in each case.
In the case of `Nc1nc(N)nc(NC2CC2)n1` [CYROMAZINE], the IC50 result (in assay [1]; on Acetylcholinesterase (hek293); in assay [2]; in assay [3]; against Substance-P receptor; in assay [4]) was “Not Active” in each case.
Consider `COc1ccc(Cc2nccc3cc(OC)c(OC)cc23)cc1OC` [PAPAVERINE], for which the IC50 result (in assay [1]; on Acetylcholinesterase (hek293); in assay [2]; in assay [3]; against Substance-P receptor; in assay [4]) was “Not Active” in each case.
Take COBALT(II) ACETYLACETONATE: the IC50 result was “Not Active” in assay [1]; “Not Active” at Acetylcholinesterase (hek293); “Not Active” in assay [2]; “Not Active” in assay [3]; “Not Active” at Substance-P receptor; 3.17 µM in assay [4] (read-out: IC50). Also, the Ki result (in assay [1]; at Acetylcholinesterase (hek293); in assay [2]; in assay [3]; at Substance-P receptor) was “Not Active” in each case.
On to INSULIN HUMAN, for which the IC50 result (in assay [1]; against Acetylcholinesterase (hek293); in assay [2]; in assay [3]; against Substance-P receptor; in assay [4]) was “Not Active” throughout. The Ki entry (in assay [1]; at Acetylcholinesterase (hek293); in assay [2]; in assay [3]; at Substance-P receptor; in assay [4]) was “Not Active” throughout.
Take POLYVINYL ALCOHOL: the IC50 result (in assay [1]; against Acetylcholinesterase (hek293); in assay [2]; in assay [3]; against Substance-P receptor; in assay [4]) was “Not Active” each time. Also, the Ki result (in assay [1]; on Acetylcholinesterase (hek293); in assay [2]; in assay [3]; at Substance-P receptor; in assay [4]) was “Not Active” throughout.
